Residue numbers refer to the chain shown, from its start. Like-named read-outs stand apart in the source and are kept apart here.
Experiments:
Assay type in all cases: cell-based
AR protein [1] = biological target: T1, AR protein (Homo sapiens, UniProt P10275, T878A); assay: Degradation of AR protein in LNCaP cells (Western blot); settings: for inhibition at 0.01 µM: read-out: Degradation rates of the AR protein in LNCaP cells, 10 nM (%); for inhibition at 0.1 µM: read-out: Degradation rates of the AR protein in LNCaP cells, 100 nM (%)
T1 construct: degradation activity of the compounds disclosed in the present disclosure on AR protein in LNCaP cells; host or cells: LNCaP FGC
T1 sequence (P10275 1-920 T878A): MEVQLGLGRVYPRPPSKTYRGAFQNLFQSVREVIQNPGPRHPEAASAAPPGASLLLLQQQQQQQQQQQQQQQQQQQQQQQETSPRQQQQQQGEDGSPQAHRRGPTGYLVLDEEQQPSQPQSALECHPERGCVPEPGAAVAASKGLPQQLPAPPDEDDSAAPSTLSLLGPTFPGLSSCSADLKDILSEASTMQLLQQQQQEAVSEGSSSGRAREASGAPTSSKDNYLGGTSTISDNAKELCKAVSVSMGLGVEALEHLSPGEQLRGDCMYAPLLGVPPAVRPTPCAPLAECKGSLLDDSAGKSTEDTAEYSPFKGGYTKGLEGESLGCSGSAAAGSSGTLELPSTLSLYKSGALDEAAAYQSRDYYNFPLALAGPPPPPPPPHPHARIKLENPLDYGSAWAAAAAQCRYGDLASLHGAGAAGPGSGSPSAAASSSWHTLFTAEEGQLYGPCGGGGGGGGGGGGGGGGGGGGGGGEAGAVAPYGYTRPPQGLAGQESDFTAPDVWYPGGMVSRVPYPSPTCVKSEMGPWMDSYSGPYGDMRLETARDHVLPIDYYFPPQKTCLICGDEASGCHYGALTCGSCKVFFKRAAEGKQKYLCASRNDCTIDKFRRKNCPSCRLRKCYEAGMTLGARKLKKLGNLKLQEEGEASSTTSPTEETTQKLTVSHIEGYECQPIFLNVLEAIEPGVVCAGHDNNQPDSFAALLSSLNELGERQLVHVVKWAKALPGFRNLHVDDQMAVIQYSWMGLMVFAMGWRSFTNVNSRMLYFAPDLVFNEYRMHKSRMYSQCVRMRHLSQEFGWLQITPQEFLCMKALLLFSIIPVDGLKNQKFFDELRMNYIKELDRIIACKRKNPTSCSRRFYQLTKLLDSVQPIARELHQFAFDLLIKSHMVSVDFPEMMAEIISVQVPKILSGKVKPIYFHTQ
In short: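 AR assessed by SDS-PAGE/Western blot with infrared imaging; band greyscale normalised to GAPDH gave percent degradation.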

AR protein [2] = biological target: T2, AR protein (Homo sapiens, UniProt P10275); assay: Degradation of AR protein in VCaP cells (Western blot); settings: 8 hours; for inhibition at 0.01 µM: compound at 10 nM, read-out: Degradation rate of the AR protein in VCaP cells, 10 nM (%); for inhibition at 0.1 µM: compound at 100 nM, read-out: Degradation rate of the AR protein in VCaP cells, 100 nM (%)
T2 construct: degradation activity of the compounds disclosed in the present disclosure on AR protein in VCaP cells; host or cells: VCaP
T2 sequence (P10275 1-920): T1 sequence (P10275 1-920 T878A) with A878T
In short: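 VCaP cells treated with compound alongside solvent controls for 8 h, then lysed in RIPA and protein quantified by BCA. AR detected by SDS-PAGE/Western blot with infrared imaging. Degradation rate calculated from band grayscale, with GAPDH as internal reference.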

LNCaP FGC cells = assay: Inhibition of proliferation of LNCaP cells (WST-8); settings: Homo sapiens, LNCaP, 96 h
Protocol: The cells were cultured in a cell culture incubator with 5% CO2 at 37° C. overnight. […] On the sixth day, 96 well plates were taken out, and 20 μL of WST-8 (Beytime, C0040) reagent was added to each well.

VCaP cells = assay: Inhibition of proliferation of VCaP cells (WST-8); settings: Homo sapiens, read-out: IC50 for inhibiting the proliferation of VCaP cells
In short: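 VCaP FGC cells, 15000 per well in DMEM with 10% FBS, were cultured at 37° C, 5% CO2. On day nine, WST-8 reagent was added to read proliferation.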

[3] = LNCaP cells, compound 10 nM, 8 hours, Western blot grayscale, GAPDH internal reference
[4] = LNCaP cells, compound 100 nM, 8 hours, Western blot grayscale, GAPDH internal reference
[5] = LNCaP FGC cells, 96 hours, WST-8 absorbance at 450 nm, read-out: IC50 for inhibiting the proliferation of LNCaP cells
[6] = VCaP cells, 168 hours, WST-8 absorbance at 450 nm

Row | Structure (SMILES) | inhibition at 0.01 µM (AR protein [1]; [3]) | inhibition at 0.1 µM (AR protein [1]; [4]) | inhibition at 0.01 µM (AR protein [2]) | inhibition at 0.1 µM (AR protein [2]) | IC50 (LNCaP FGC cells; [5]) | IC50 (VCaP cells; [6]) | inhibition at 0.01 µM (AR protein [1]; LNCaP, 8 h) | inhibition at 0.1 µM (AR protein [1]; LNCaP, 8 h) | IC50 (LNCaP FGC cells; read-out: IC50 for inhibiting the proliferation of LNCaP cells, LNCaP FGC cells, 96 hours, WST-8 absorbance at 450 nm) | IC50 (VCaP cells; VCaP, 168 h)
1 | N#Cc1ccc(O[C@H]2CC[C@H](NC(=O)c3ccc(N4CC5(CCC(N6CCC7(CC6)COc6cc8c(cc67)C(=O)N(C6CCC(=O)NC6=O)C8=O)CC5)C4)nn3)CC2)cc1Cl (stereo partly drawn) [Compound 53] | 69% | 85% | 62% | 71% | 380 nM | 43 nM | – | – | – | –
2 | N#Cc1ccc(O[C@H]2CC[C@H](NC(=O)c3ccc(N4CC5(CC(C(=O)N6CCC7(CC6)COc6c7ccc7c6CN(C6CCC(=O)NC6=O)C7=O)C5)C4)nn3)CC2)cc1Cl (stereo partly drawn) [Compound 256] | 47% | 36% | 48% | 81% | 56000 nM | 7.5 nM | – | – | – | –
3 | N#Cc1ccc(O[C@H]2CC[C@H](NC(=O)c3ccc(N4CCC(CN5CCC6(CCc7cc8c(cc7O6)C(=O)N(C6CCC(=O)NC6=O)C8)CC5)CC4)nn3)CC2)cc1Cl (stereo partly drawn) [Compound 44] | 85% | 84% | 79% | 83% | 1140 nM | 2.5 nM | – | – | – | –
4 | N#Cc1ccc(O[C@H]2CC[C@H](NC(=O)c3ccc(N4CCC(N5CCC6(CCc7ccc8c(c7O6)CN(C6CCC(=O)NC6=O)C8=O)CC5)CC4)nn3)CC2)cc1Cl (stereo partly drawn) [Compound 171] | – | – | 46% | 62% | – | – | 22% | 44% | 13500 nM | 1 nM
5 | CC1(CN2CC3(CCc4cc5c(cc4O3)C(=O)N(C3CCC(=O)NC3=O)C5=O)C2)CCN(c2ccc(C(=O)N[C@H]3CC[C@H](Oc4ccc(C#N)c(Cl)c4)CC3)nn2)CC1 (stereo partly drawn) [Compound 2] | 66% | 50% | 21% | 56% | 1250 nM | 3910 nM | – | – | – | –
6 | N#Cc1ccc(O[C@H]2CC[C@H](NC(=O)c3ccc(N4CCC5(CC4)COc4cc6c(cc4C5)C(=O)N(C4CCC(=O)NC4=O)C6=O)nn3)CC2)cc1Cl (stereo partly drawn) [Compound 60] | 41% | 64% | 41% | 64% | 2400 nM | 4400 nM | – | – | – | –
7 | N#Cc1ccc(O[C@H]2CC[C@H](NC(=O)c3ccc(N4CCC(F)(CN5CC6(CCc7ccc8c(c7O6)C(=O)N(C6CCC(=O)NC6=O)C8=O)C5)CC4)nn3)CC2)cc1Cl (stereo partly drawn) [Compound 164] | 25% | 4% | 4% | 8% | 90500 nM | 11800 nM | – | – | – | –
8 | N#Cc1ccc(O[C@H]2CC[C@H](NC(=O)c3ccc(N4CC5(CC(N6CCC7(CCc8ccc9c(c8O7)CN(C7CCC(=O)NC7=O)C9=O)CC6)C5)C4)nn3)CC2)cc1Cl (stereo partly drawn) [Compound 152] | 45% | 24% | 51% | 72% | 28300 nM | > 90000 nM | – | – | – | –
9 | CCC1(CN2CCC3(CC2)COc2c3ccc3c2CN(C2CCC(=O)NC2=O)C3=O)CCN(c2ccc(C(=O)N[C@H]3CC[C@H](Oc4ccc(C#N)c(Cl)c4)CC3)nn2)CC1 (stereo partly drawn) [Compound 236] | 44% | 60% | 37% | 82% | 22 nM | 1 nM | – | – | – | –

Source: US20260234157A1, “COMPOUND AND METHOD FOR TARGETED DEGRADATION OF ANDROGEN RECEPTOR” (Gan & Lee Pharmaceuticals Co., Ltd., priority 2023, published 2026)
